The term GI50 denotes the concentration at which growth is held to half of that of the control. One may read the TGI as the concentration giving total growth inhibition.

The source of these data is PubChem BioAssay (NCI).

Some test systems named below: A549 NSCLC; EKVX NSCLC; HCT-15 colon; K-562 leukemia; NCI-H460 lung; NCI-H522 lung; OVCAR-3 ovarian; OVCAR-5 ovarian; PC-3 prostate; SF-268 CNS.
Holding throughout (experiment): DTP human tumour cell line panel, 48 h

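Following 48 hours of exposure in 96-well plates, responses at five concentrations were used to interpolate endpoints linearly. Here, GI50 denotes the concentration required for 50% inhibition of growth. TGI denotes the concentration required for complete inhibition of growth.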

On to `O=C(OC[C@@H]1CO1)c1cccc2c(=O)c3ccccc3[nH]c12`, for which the GI50 is 0.468 µM in the assay on A549 NSCLC; 0.856 µM in the assay on EKVX NSCLC; 0.307 µM in the assay with HCT-15 colon; 0.24 µM in the assay on K-562 leukemia; 0.38 µM in the assay with NCI-H460 lung; 0.421 µM in the assay on NCI-H522 lung. Also, the concentration for 50% growth inhibition (GI50) in the assay with OVCAR-3 ovarian is 0.276 µM; in the assay with OVCAR-5 ovarian, 0.474 µM; with PC-3 prostate, 0.381 µM; in the assay with SF-268 CNS, 0.172 µM. Further, the TGI was 5.68 µM in the assay with A549 NSCLC; 3.72 µM with EKVX NSCLC; 3.36 µM with HCT-15 colon; above 100 µM in the assay with K-562 leukemia; 1.75 µM in the assay on NCI-H460 lung; 2.2 µM in the assay with NCI-H522 lung. Further, the TGI in the assay on OVCAR-3 ovarian was 1.14 µM; in the assay on OVCAR-5 ovarian it was 4.17 µM; with PC-3 prostate, above 21.8 µM; in the assay on SF-268 CNS, 1.01 µM.
Consider `OCC#Cc1ccccc1C#Cc1ccc(C#Cc2ccccc2)cc1`, for which the GI50 was 15.3 µM in the assay on A549 NSCLC; 25.2 µM in the assay with EKVX NSCLC; 18.1 µM in the assay with HCT-15 colon; 3.92 µM in the assay with K-562 leukemia; 20.5 µM with NCI-H460 lung; 55.2 µM in the assay on NCI-H522 lung. Also, the GI50 in the assay with OVCAR-3 ovarian is 27.3 µM; in the assay on OVCAR-5 ovarian, 17.7 µM; with PC-3 prostate it was 15.1 µM; in the assay on SF-268 CNS it was 23.7 µM. Further, the TGI is 33.3 µM in the assay on A549 NSCLC; 77.9 µM with EKVX NSCLC; 38.5 µM in the assay with HCT-15 colon; 26.3 µM with K-562 leukemia; 79.8 µM in the assay with NCI-H460 lung; above 100 µM with NCI-H522 lung. For the same compound, the TGI in the assay on OVCAR-3 ovarian is 48.7 µM; with OVCAR-5 ovarian, 34.9 µM; with PC-3 prostate, 34.2 µM; in the assay on SF-268 CNS, above 100 µM.
With `C=C1CC/C=C(\C)CC[C@H](C(=C)C)[C@@H](O)/C=C(/CO)CCC1O` (stereo not given in full), the GI50 is 74.4 µM with A549 NSCLC; 60.4 µM in the assay with EKVX NSCLC; above 100 µM with HCT-15 colon; 24.5 µM with K-562 leukemia; 54.8 µM in the assay with NCI-H460 lung; 60.7 µM with NCI-H522 lung. Besides, the GI50 with OVCAR-3 ovarian was 40 µM; with OVCAR-5 ovarian, above 100 µM; in the assay on PC-3 prostate, 43.4 µM; with SF-268 CNS it was 78.4 µM. Further, the TGI in the assay on A549 NSCLC is above 100 µM; in the assay with EKVX NSCLC, above 100 µM; with HCT-15 colon it was above 100 µM; with K-562 leukemia it was 69.7 µM; in the assay with NCI-H460 lung, above 100 µM; with NCI-H522 lung it was above 100 µM. The TGI in the assay on OVCAR-3 ovarian, in the assay with OVCAR-5 ovarian, in the assay with PC-3 prostate and with SF-268 CNS was above 100 µM throughout.
With `CC1(C)CC[C@]2(C(=O)O)CC[C@]3(C)C(=CC[C@@H]4[C@@]5(C)C/C(=C/c6ccco6)C(=O)C(C)(C)[C@@H]5CC[C@]43C)[C@@H]2C1`, the GI50 with A549 NSCLC is 2.6 µM; with EKVX NSCLC it was 3.62 µM; in the assay on HCT-15 colon it was 2.5 µM; with K-562 leukemia, 3.37 µM; in the assay with NCI-H460 lung, 3.38 µM; with NCI-H522 lung it was 3.22 µM. In addition, the GI50 in the assay with OVCAR-3 ovarian is 2.9 µM; with OVCAR-5 ovarian, 6.15 µM; in the assay with PC-3 prostate, 2.62 µM; in the assay on SF-268 CNS, 4.03 µM. Moreover, the total growth inhibition concentration (TGI) in the assay with A549 NSCLC is 23.5 µM; in the assay with EKVX NSCLC it was 31.1 µM; in the assay on HCT-15 colon it was 13.4 µM; with K-562 leukemia, above 100 µM; in the assay on NCI-H460 lung, 12.2 µM; in the assay with NCI-H522 lung, 24.3 µM. Besides, the concentration for total growth inhibition (TGI) is 9.61 µM in the assay with OVCAR-3 ovarian, 32.5 µM in the assay with OVCAR-5 ovarian, 14.9 µM with PC-3 prostate and 23 µM in the assay with SF-268 CNS.
Take `COc1cc(/C=C2\C(=O)N(C)c3ccccc32)cc(OC)c1OC`: the GI50 in the assay with A549 NSCLC is 26.3 µM; in the assay with EKVX NSCLC it was 24.3 µM; with HCT-15 colon, 10.3 µM; in the assay on K-562 leukemia it was 5.02 µM; with NCI-H460 lung, 10.8 µM; in the assay with NCI-H522 lung it was 11.2 µM. Besides, the GI50 in the assay with OVCAR-3 ovarian is 21.3 µM; in the assay on OVCAR-5 ovarian, 25.2 µM; in the assay on PC-3 prostate, 10.5 µM; with SF-268 CNS, 0.793 µM. The TGI with A549 NSCLC was above 100 µM; with EKVX NSCLC it was above 100 µM; in the assay on HCT-15 colon, 85.5 µM; with K-562 leukemia, above 100 µM; with NCI-H460 lung it was 64.1 µM; in the assay with NCI-H522 lung, 37.8 µM. The concentration for total growth inhibition (TGI) in the assay on OVCAR-3 ovarian is 76.9 µM; in the assay on OVCAR-5 ovarian, 70.2 µM; with PC-3 prostate, above 100 µM; in the assay on SF-268 CNS, above 100 µM.
With `NC(N)=N/N=C(/c1ccccc1)c1ccccc1F`, the GI50 in the assay with A549 NSCLC was 4.51 µM; in the assay on EKVX NSCLC, 6.89 µM; with HCT-15 colon, 1.98 µM; in the assay on K-562 leukemia, 1.32 µM; in the assay with NCI-H460 lung it was 2.31 µM; in the assay with NCI-H522 lung, 3.12 µM. Also, the GI50 was 2.1 µM with OVCAR-3 ovarian, 7.49 µM in the assay with OVCAR-5 ovarian, 4.7 µM in the assay with PC-3 prostate and 5.48 µM in the assay with SF-268 CNS. Moreover, the TGI was 36.8 µM in the assay with A549 NSCLC; 53 µM in the assay with EKVX NSCLC; 13.8 µM in the assay on HCT-15 colon; above 100 µM with K-562 leukemia; 10.4 µM with NCI-H460 lung; 14.7 µM in the assay on NCI-H522 lung. Besides, the concentration for total growth inhibition (TGI) is 7.55 µM with OVCAR-3 ovarian, 33.8 µM in the assay on OVCAR-5 ovarian, above 57.7 µM in the assay with PC-3 prostate and 26.9 µM in the assay with SF-268 CNS.
For the compound `CCSc1ncc(Br)c(Sc2nc(N)nc3nc[nH]c23)n1`, the GI50 with A549 NSCLC is 21 µM; in the assay on EKVX NSCLC, 3.4 µM; with HCT-15 colon it was 4.07 µM; in the assay on K-562 leukemia it was 3.11 µM; with NCI-H460 lung, 3.08 µM; in the assay with NCI-H522 lung, 3.18 µM. Further, the GI50 with OVCAR-3 ovarian was 2.55 µM; with OVCAR-5 ovarian, 5.83 µM; with PC-3 prostate, 4.77 µM; with SF-268 CNS it was 3 µM. Moreover, the concentration for total growth inhibition (TGI) is above 100 µM with A549 NSCLC; above 100 µM in the assay with EKVX NSCLC; above 100 µM with HCT-15 colon; above 100 µM with K-562 leukemia; 23.4 µM in the assay with NCI-H460 lung; 64.9 µM in the assay with NCI-H522 lung. The TGI is 25 µM with OVCAR-3 ovarian, above 100 µM in the assay with OVCAR-5 ovarian, above 100 µM in the assay on PC-3 prostate and above 100 µM in the assay with SF-268 CNS.
